Measurements as given in PubChem BioAssay AID330 (DTP/NCI, 2004).
Values joined by “and” are separate entries in the source; they are usually repeats but may differ in a detail not shown here. Equal entries are not always repeated. Inconclusive results and toxic doses are left out. Rule for the calls: active = survival T/C of 150% or more; inactive = T/C below 125% in these data. Peptide text beside a SMILES is read from it.

System: P388 leukemia ip, CD2F1 mice, survival T/C
Experiment: NCI In Vivo Anticancer Drug Screen. Data for tumor model P388 Leukemia (intraperitoneal) in CD2F1 (CDF1) mice
Settings: endpoint: median survival time, higher = longer survival
Procedure, shortened: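 Mice carrying the transplanted tumor received test compound or vehicle. Survival was recorded in each group, and the value is the treated-group measurement divided by that of the vehicle-treated control group.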

[1] = dose: 15.0 mg/kg/injection, schedule: Q01DX005 (ip), vehicle: saline with Tween-80
[2] = dose: 30.0 mg/kg/injection, schedule: Q01DX005 (ip), vehicle: saline with Tween-80
[3] = dose: 60.0 mg/kg/injection, schedule: Q01DX005 (ip), vehicle: saline with Tween-80
[4] = dose: 50.0 mg/kg/injection, schedule: Q01DX009 (ip), vehicle: saline
[5] = dose: 100.0 mg/kg/injection, schedule: Q01DX009 (ip), vehicle: saline
[6] = dose: 200.0 mg/kg/injection, schedule: Q04DX003 (ip), vehicle: saline
[7] = dose: 400.0 mg/kg/injection, schedule: Q04DX003 (ip), vehicle: saline
[8] = dose: 120.0 mg/kg/injection, schedule: Q01DX005 (ip), vehicle: saline with Tween-80
[9] = dose: 240.0 mg/kg/injection, schedule: Q01DX005 (ip), vehicle: saline with Tween-80
[10] = dose: 25.0 mg/kg/injection, schedule: Q01DX009 (ip), vehicle: saline with Tween-80
[11] = dose: 50.0 mg/kg/injection, schedule: Q01DX009 (ip), vehicle: saline with Tween-80
[12] = dose: 100.0 mg/kg/injection, schedule: Q01DX009 (ip), vehicle: saline with Tween-80
[13] = dose: 200.0 mg/kg/injection, schedule: Q01DX009 (ip), vehicle: saline with Tween-80
[14] = dose: 50.0 mg/kg/injection, schedule: Q01DX005 (ip), vehicle: saline with Tween-80
[15] = dose: 100.0 mg/kg/injection, schedule: Q01DX005 (ip), vehicle: saline with Tween-80
[16] = dose: 200.0 mg/kg/injection, schedule: Q01DX005 (ip), vehicle: saline with Tween-80
[17] = dose: 50.0 mg/kg/injection, schedule: Q01DX005 (ip), vehicle: Klucel (hydroxypropylcellulose) (HPC)
[18] = dose: 100.0 mg/kg/injection, schedule: Q01DX005 (ip), vehicle: Klucel (hydroxypropylcellulose) (HPC)
[19] = dose: 100.0 mg/kg/injection, schedule: Q04DX003 (ip), vehicle: saline
[20] = dose: 100.0 mg/kg/injection, schedule: Q04DX003 (ip), vehicle: saline with Tween-80
[21] = dose: 12.5 mg/kg/injection, schedule: Q01DX009 (ip), vehicle: saline with Tween-80

Measured: T/C

C(=C1\Oc2ccccc2N=C1OCCN1CCOCC1)/c1ccccc1
inactive: dose: 100.0 mg/kg/injection, schedule: Q04DX003 (ip), vehicle: Klucel (hydroxypropylcellulose) (HPC) 97 % of control | dose: 200.0 mg/kg/injection, schedule: Q04DX003 (ip), vehicle: Klucel (hydroxypropylcellulose) (HPC) 99 % of control | dose: 400.0 mg/kg/injection, schedule: Q04DX003 (ip), vehicle: Klucel (hydroxypropylcellulose) (HPC) 98 % of control

O=C1C(c2cnccn2)=C(O)c2ccccc21
inactive: [1] 91 % of control | [2] 97 % of control | [3] 100 % of control and 90 % of control

O=C(OCCCCCl)c1ccccc1
inactive: dose: 50.0 mg/kg/injection, schedule: Q01DX009 (ip), vehicle: saline + Tween-80 + alcohol 104 % of control | dose: 100.0 mg/kg/injection, schedule: Q01DX009 (ip), vehicle: saline + Tween-80 + alcohol 104 % of control | dose: 200.0 mg/kg/injection, schedule: Q01DX009 (ip), vehicle: saline + Tween-80 + alcohol 110 % of control | dose: 400.0 mg/kg/injection, schedule: Q01DX009 (ip), vehicle: saline + Tween-80 + alcohol 112 % of control

O=c1[nH]cnc2c1nnn2C1OC(CO)C(O)C1O (stereo not given)
inactive: dose: 25.0 mg/kg/injection, schedule: Q01DX005 (ip), vehicle: saline 102 % of control and 105 % of control | dose: 50.0 mg/kg/injection, schedule: Q01DX005 (ip), vehicle: saline 107 % of control and 111 % of control | dose: 100.0 mg/kg/injection, schedule: Q01DX005 (ip), vehicle: saline 114 % of control and 118 % of control | dose: 200.0 mg/kg/injection, schedule: Q01DX005 (ip), vehicle: saline 111 % of control and 116 % of control | dose: 400.0 mg/kg/injection, schedule: Q01DX005 (ip), vehicle: saline 100 % of control

CSc1cccnc1SC
inactive: [4] 98 % of control | [5] 98 % of control | dose: 200.0 mg/kg/injection, schedule: Q01DX009 (ip), vehicle: saline 92 % of control

CC(C)CC(NC(=O)C(N)Cc1c[nH]c2ccccc12)C(N)=O (stereo not drawn) (H-Trp-Leu-NH2; configuration not given here)
inactive: [6] 95 % of control | [7] 106 % of control

CC(=O)OC1C=CC2Oc3ccc(C)cc3C1(C)O2 (stereo not given)
inactive: [3] 93 % of control | [8] 106 % of control | [9] 101 % of control

CC(O)C(c1ccccc1)S(C)(=O)=O (stereo not given)
inactive: [10] 101 % of control | [11] 110 % of control | [12] 116 % of control | [13] 113 % of control

ClCC1OCCO1
inactive: [4] 116 % of control | [5] 116 % of control

O=c1cc2c(n[nH]1)-c1ccccc1C2
inactive: [14] 100 % of control | [15] 109 % of control | [16] 96 % of control

COC(=O)c1nc(N)nc(C(=O)OC)c1C(=O)c1c(C)[nH]c2ccccc12
inactive: [3] 114 % of control | [8] 91 % of control

CC(C)CS(=O)(=O)OCCCCOS(=O)(=O)CC(C)C
inactive: [17] 115 % of control | [18] 111 % of control

Cc1cc2[nH]c3c(C#N)c(OC(=O)N(C)C)c(C)c(=O)n3c2cc1C
inactive: [1] 100 % of control | [2] 108 % of control | [3] 100 % of control and 93 % of control

CN1CCC/C1=C/C(=O)c1ccc(Cl)cc1
inactive: [19] 102 % of control and 98 % of control | [6] 111 % of control and 120 % of control | [7] 92 % of control

N#Cc1c2c(c(Cl)n3c1nc1ccccc13)CCC2
inactive: [3] 100 % of control | [8] 91 % of control | [9] 91 % of control

c1ccc2cc3c(N=Nc4cc5ccccc5[nH]4)cccc3cc2c1
inactive: dose: 100.0 mg/kg/injection, schedule: Q01DX001 (ip), vehicle: saline with Tween-80 97 % of control | dose: 200.0 mg/kg/injection, schedule: Q01DX001 (ip), vehicle: saline with Tween-80 97 % of control | dose: 400.0 mg/kg/injection, schedule: Q01DX001 (ip), vehicle: saline with Tween-80 94 % of control

Brc1ccc(Nc2c3ccccc3nc3ccccc23)cc1
inactive: dose: 50.0 mg/kg/injection, schedule: Q04DX003 (ip), vehicle: saline with Tween-80 95 % of control | [20] 100 % of control

C=C1C(=O)OC2C1C(OC(=O)/C(C)=C/C)CC1(C)C(=O)CCC(=C)C21 (stereo not given)
inactive: dose: 12.5 mg/kg/injection, schedule: Q01DX005 (ip), vehicle: Klucel (hydroxypropylcellulose) (HPC) 110 % of control | dose: 25.0 mg/kg/injection, schedule: Q01DX005 (ip), vehicle: Klucel (hydroxypropylcellulose) (HPC) 104 % of control and 106 % of control and 107 % of control | [17] 106 % of control and 109 % of control and 112 % of control | [18] 109 % of control | dose: 150.0 mg/kg/injection, schedule: Q01DX005 (ip), vehicle: Klucel (hydroxypropylcellulose) (HPC) 107 % of control | dose: 200.0 mg/kg/injection, schedule: Q01DX005 (ip), vehicle: Klucel (hydroxypropylcellulose) (HPC) 108 % of control and 111 % of control

COc1ccc(C(=NO)c2ccc(OC)cc2)cc1
inactive: [19] 100 % of control | [6] 100 % of control | [7] 104 % of control

Cc1ccc(-c2cs/c(=N\N=C3/CSC(=O)N3Cc3ccccc3)n2-c2ccccc2)cc1
inactive: dose: 100.0 mg/kg/injection, schedule: Q04DX002 (ip), vehicle: Klucel (hydroxypropylcellulose) (HPC) 98 % of control | dose: 200.0 mg/kg/injection, schedule: Q04DX002 (ip), vehicle: Klucel (hydroxypropylcellulose) (HPC) 89 % of control

FC(F)(F)c1cccc(COCCN2CCN(Cc3cccc(C(F)(F)F)c3)CC2)c1
inactive: [3] 103 % of control | [8] 95 % of control | [9] 112 % of control

COC(=O)c1cc(=O)nc(N/N=C/c2cc(OC)ccc2OC)s1
inactive: [14] 95 % of control | [15] 94 % of control | [16] 95 % of control

S=c1sc2cccnc2s1
inactive: [21] 99 % of control | [10] 100 % of control | [11] 104 % of control and 111 % of control

COc1ccc2c(c1)CN(C)CO2
inactive: [14] 103 % of control | [15] 102 % of control | [16] 107 % of control

FC(F)(F)CO[Te](OCC(F)(F)F)(OCC(F)(F)F)OCC(F)(F)F
inactive: dose: 12.5 mg/kg/injection, schedule: Q01DX001 (ip), vehicle: saline with Tween-80 106 % of control

N#CCc1noc2ccccc12
inactive: [21] 103 % of control | [10] 109 % of control

O/N=C/c1ccc(Cl)cc1Cl
inactive: dose: 25.0 mg/kg/injection, schedule: Q01DX005 (ip), vehicle: saline with Tween-80 98 % of control | [14] 107 % of control | [15] 92 % of control | [16] 96 % of control

CC(=O)C(C)C(C)=O
inactive: dose: 6.25 mg/kg/injection, schedule: Q01DX009 (ip), vehicle: saline with Tween-80 97 % of control | [21] 93 % of control | [10] 100 % of control | [11] 107 % of control | [12] 108 % of control | [13] 103 % of control | dose: 400.0 mg/kg/injection, schedule: Q01DX009 (ip), vehicle: saline with Tween-80 110 % of control

CCOC(OCC)c1ccc([N+](=O)[O-])cc1
inactive: [20] 106 % of control | dose: 200.0 mg/kg/injection, schedule: Q04DX003 (ip), vehicle: saline with Tween-80 100 % of control | dose: 400.0 mg/kg/injection, schedule: Q04DX003 (ip), vehicle: saline with Tween-80 117 % of control
